Assay results from ChEMBL document CHEMBL1201862, “PubChem BioAssay data set” (2004).
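48-hour exposure; five concentrations; linearly interpolated endpoints. GI50 is the concentration that inhibits growth by half.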 Active and inactive are the calls of the source. No stated cut-off is given here; in the data, active = GI50 up to about 1.1 µM and inactive = higher.

Experiments:
Test in all cases: NCI tumour cell line growth inhibition, 48 h
Malme-3M = tested on: Malme-3M
NCI-H226 = tested on: NCI-H226
HCT-15 = tested on: HCT-15
IGROV-1 = tested on: IGROV-1
SF-268 = tested on: SF-268
HOP-62 = tested on: HOP-62
NCI-H522 = tested on: NCI-H522
SN12C = tested on: SN12C
HOP-92 = tested on: HOP-92
DU-145 = tested on: DU-145
UO-31 = tested on: UO-31
COLO 205 = tested on: COLO 205
OVCAR-3 = tested on: OVCAR-3
SK-OV-3 = tested on: SK-OV-3
HCC 2998 = tested on: HCC 2998
BT-549 = tested on: BT-549
MOLT-4 = tested on: MOLT-4
CAKI-1 = tested on: CAKI-1

SMILES | GI50 (Malme-3M) | GI50 (NCI-H226) | GI50 (HCT-15) | GI50 (IGROV-1) | GI50 (SF-268) | GI50 (HOP-62) | GI50 (NCI-H522) | GI50 (SN12C) | GI50 (HOP-92) | GI50 (DU-145) | GI50 (UO-31) | GI50 (COLO 205) | GI50 (OVCAR-3) | GI50 (SK-OV-3) | GI50 (HCC 2998) | GI50 (BT-549) | GI50 (MOLT-4) | GI50 (CAKI-1)
Cc1cc(=O)n2nc(SCc3ccccc3)sc2n1 | > 100 µM (inactive) | > 100 µM (inactive) | > 100 µM | > 100 µM (inactive) | > 100 µM (inactive) | > 100 µM (inactive) | > 100 µM (inactive) | > 100 µM (inactive) | 94.8 µM (inactive) | > 100 µM (inactive) | 24.3 µM (inactive) | > 100 µM (inactive) | > 100 µM (inactive) | > 100 µM (inactive) | > 100 µM (inactive) | > 100 µM (inactive) | 46.5 µM (inactive) | 
CN(C)CCn1c(=O)c2ccc(NCCCN(C)CCCNc3ccc4c(=O)n(CCN(C)C)c(=O)n5c6ccc(O)cc6c(=O)c3c45)c3c(=O)c4cc(O)ccc4n(c1=O)c23 | 0.0659 µM (active) | < 0.01 µM (active) | < 0.0173 µM | < 0.01 µM (active) | 0.0481 µM (active) | < 0.032 µM (active) | < 0.01 µM (active) | < 0.01 µM (active) | < 0.0201 µM (active) | < 0.01 µM (active) | 0.0107 µM (active) | < 0.01 µM (active) | 0.059 µM (active) |  | < 0.0151 µM (active) | 0.0692 µM (active) | < 0.01 µM (active) | < 0.01 µM (active)
CC(=O)O[C@H]1C(=O)[C@@]2(C)[C@H]([C@H](OC(=O)c3ccccc3)[C@]3(O)C[C@H](OC(=O)[C@H](O)[C@@H](NC(=O)c4ccccc4)c4cccc(N(C)C)c4)C(C)=C1C3(C)C)[C@]1(OC(C)=O)CO[C@@H]1C[C@@H]2O |  | 0.665 µM (active) | 1.79 µM | 0.0537 µM (active) | 0.337 µM (active) | 0.256 µM (active) | 0.0533 µM (active) | 0.041 µM (active) | 0.555 µM (active) | 0.302 µM (active) | 1.96 µM (inactive) | 0.0432 µM (active) | 0.0308 µM (active) | 0.105 µM (active) | 0.0315 µM (active) | 0.165 µM (active) | 0.013 µM (active) | > 48.3 µM (inactive)
Cn1/c(=N\N=C(\CNCCO)[C@@H](O)[C@@H]2OC(c3ccccc3)OC[C@H]2O)sc2ccccc21 (stereo partly specified) | 17.7 µM (inactive) |  | 25.5 µM | 15.8 µM (inactive) | 15.5 µM (inactive) | 17.8 µM (inactive) | 17.6 µM (inactive) | 17.9 µM (inactive) | 11 µM (inactive) | 18.5 µM (inactive) | 15.4 µM (inactive) | 15.5 µM (inactive) | 16.4 µM (inactive) | 18.4 µM (inactive) | 11.3 µM (inactive) | 21.1 µM (inactive) | 14.9 µM (inactive) | 15.6 µM (inactive)
C=CCC1(O)c2cccc(O)c2C(=O)c2c(O)cccc21 |  | 45.7 µM (inactive) | 17.7 µM | 45.9 µM (inactive) | 32.7 µM (inactive) | 80.2 µM (inactive) | 23.8 µM (inactive) |  | 28.1 µM (inactive) | 29.9 µM (inactive) | 27.8 µM (inactive) |  | 47.9 µM (inactive) |  | 17.5 µM (inactive) | 29.6 µM (inactive) | 29.3 µM (inactive) | 31.2 µM (inactive)
O=C(Nc1ccccc1)OCCN=c1c2ccccc2ccc2ccccc12 | 18.7 µM (inactive) | 32.1 µM (inactive) | 26.1 µM | 27.9 µM (inactive) | 34.8 µM (inactive) | 28.2 µM (inactive) |  | 25.5 µM (inactive) | 18.4 µM (inactive) | 28.8 µM (inactive) | 17 µM (inactive) | 21 µM (inactive) | 17.5 µM (inactive) | 32.1 µM (inactive) | 11.2 µM (inactive) | 13 µM (inactive) | 15.7 µM (inactive) | 26.4 µM (inactive)
Cc1cn(CCCCOC(=O)NC(CCCNC(=N)N)C(=O)O)c(=O)[nH]c1=O (stereo unspecified) |  | > 100 µM (inactive) | > 100 µM | > 100 µM (inactive) | > 100 µM (inactive) | > 100 µM (inactive) |  | > 100 µM (inactive) | > 100 µM (inactive) | > 100 µM (inactive) | > 100 µM (inactive) | > 100 µM (inactive) | > 100 µM (inactive) | > 100 µM (inactive) | > 100 µM (inactive) | > 100 µM (inactive) | > 100 µM (inactive) | > 100 µM (inactive)
CC#CC#C/C=C1/C=CC2(CCCCO2)O1 (stereo unspecified) | > 100 µM (inactive) | > 100 µM (inactive) | 56.8 µM | 70.1 µM (inactive) | > 100 µM (inactive) |  | 40.1 µM (inactive) | > 100 µM (inactive) | > 100 µM (inactive) | > 100 µM (inactive) | 42.9 µM (inactive) | 71.1 µM (inactive) |  | > 100 µM (inactive) | > 100 µM (inactive) | > 100 µM (inactive) | 33.5 µM (inactive) | > 100 µM (inactive)
